63 compounds from patent US11780841B2, “3,6-methano-1H-pyrrolo[3,2-b]pyridine and 3,6-methano-1H-pyrrolo[3,2-c]pyridine compounds and medicaments using same” (priority 2018, dated 2023) can be followed below.

For the test, the system named is recombinant rabies virus 1088 strain expressing Gaussia Luciferase (GLuc) (1088/GLuc). Format: cell-based. The following applies: read-out: Anti-rabies activity.

Turning to `CC(C)C[C@@H]1[C@H]2CN[C@@]3(C(=O)NCCO)[C@@H](C2)CN(Cc2cccc4ccccc24)[C@@H]13` [IB-643], the IC50 lay in the range of 10 to 30 µM.
In the case of `CC(C)C[C@@H]1[C@H]2CN[C@@]3(C(=O)NCCO)[C@@H](C2)CN(CC2CCCCC2)[C@@H]13` [IB-646], the IC50 was 10 to 30 µM.
On to `CC(C)CCNC(=O)[C@]12NC[C@H]3C[C@H]1CN(CC1CCCCC1)[C@H]2[C@@H]3Cc1ccc(O)cc1` [IB-648], for which the IC50 is 10 to 30 µM.
To `O=C(NCCO)[C@]12NC[C@H]3C[C@H]1CN(Cc1ccc(F)cc1)[C@H]2[C@@H]3Cc1ccccc1` [IB-649] belongs 10 to 30 µM; to `CC(C)C[C@@H]1[C@H]2CN[C@@]3(C(=O)NCCO)[C@@H](C2)CN(Cc2ccc(F)cc2)[C@@H]13` [IB-650], 10 to 30 µM; to `CCCCCCNC(=O)[C@]12NC[C@H]3C[C@H]1CN(Cc1ccc(F)cc1)[C@H]2[C@@H]3Cc1ccc(O)cc1` [IB-656], less than 5 µM.
For `CC(C)CC[C@@H]1[C@H]2CN[C@@]3(C(=O)NCc4ccc(F)cc4)[C@@H](C2)CN(CCO)[C@@H]13` [IB-657] the value was 10 to 30 µM; for `CC(C)CCN1C[C@@H]2C[C@@H]3CN[C@]2(C(=O)NCCO)[C@@H]1[C@@H]3CCc1ccccc1` [IB-658], 10 to 30 µM; for `CC(C)CCN1C[C@@H]2C[C@@H]3CN[C@]2(C(=O)NCCO)[C@@H]1[C@@H]3Cc1cccc2ccccc12` [IB-659], less than 5 µM.
On to `O=C(NCCO)[C@]12NC[C@H]3C[C@H]1CN(CC1CCCCC1)[C@H]2[C@@H]3CCc1ccccc1` [IB-663], for which the IC50 is less than 5 µM.
For `CC(C)CC[C@@H]1[C@H]2CN[C@@]3(C(=O)NCCO)[C@@H](C2)CN(Cc2ccc(F)cc2)[C@@H]13` [IB-668], the IC50 is less than 5 µM.
As for `O=C(NCCO)[C@]12NC[C@H]3C[C@H]1CN(Cc1ccc(F)cc1)[C@H]2[C@@H]3CCc1ccccc1` [IB-669], the IC50 was in the range of 10 to 30 µM.
For `O=C(NCCO)[C@]12NC[C@H]3C[C@H]1CN(Cc1ccccc1)[C@H]2[C@@H]3Cc1ccccc1` [IB-676], the IC50 lay within 10 to 30 µM.
For `CC(C)CCNC(=O)[C@]12NC[C@H]3C[C@H]1CN(Cc1ccccc1)[C@H]2[C@@H]3Cc1ccc(O)cc1` [IB-678] the value was less than 5 µM; for `CC(C)CC[C@@H]1[C@H]2CN[C@@]3(C(=O)NCCO)[C@@H](C2)CN(Cc2ccccc2)[C@@H]13` [IB-680], 10 to 30 µM.
To `O=C(NCCO)[C@]12NC[C@H]3C[C@H]1CN(Cc1ccccc1)[C@H]2[C@@H]3CCc1ccccc1` [IB-681] belongs 10 to 30 µM.
For `CC(C)CCNC(=O)[C@]12NC[C@H]3C[C@H]1CN(CC(C)C)[C@H]2[C@@H]3Cc1ccc(O)cc1` [IB-684] the value was 10 to 30 µM; for `CC(C)CN1C[C@@H]2C[C@@H]3CN[C@]2(C(=O)NCCO)[C@@H]1[C@@H]3Cc1cccc2ccccc12` [IB-687], 10 to 30 µM.
Turning to `CC(C)CCNC(=O)[C@]12NC[C@H]3C[C@H]1CN(CC(C)C)[C@H]2[C@@H]3CCc1ccccc1` [IB-688], the IC50 was less than 5 µM.
For `CC(C)CC[C@@H]1[C@H]2CN[C@@]3(C(=O)NCc4ccccc4)[C@@H](C2)CN(CCC(=O)O)[C@@H]13` [IB-694] the value was 10 to 30 µM; for `CC(C)CCN1C[C@@H]2C[C@@H]3CN[C@]2(C(=O)NCCC(N)=O)[C@@H]1[C@@H]3Cc1cccc2ccccc12` [IB-703], less than 5 µM.
Regarding `NC(=O)CCNC(=O)[C@]12NC[C@H]3C[C@H]1CN(CCc1ccccc1)[C@H]2[C@@H]3Cc1ccccc1` [IB-707], the IC50 is less than 5 µM.
For the compound `CC(C)C[C@@H]1[C@H]2CN[C@@]3(C(=O)NCCC(N)=O)[C@@H](C2)CN(CCc2ccccc2)[C@@H]13` [IB-708], the IC50 was less than 5 µM.
Consider `NC(=O)CCNC(=O)[C@]12NC[C@H]3C[C@H]1CN(CC1CCCCC1)[C@H]2[C@@H]3CCc1ccccc1` [IB-710], for which the IC50 was less than 5 µM.
For `NC(=O)CCNC(=O)[C@]12NC[C@H]3C[C@H]1CN(Cc1ccc(F)cc1)[C@H]2[C@@H]3Cc1ccccc1` [IB-712] the value was less than 5 µM; for `CC(C)CCNC(=O)[C@]12NC[C@H]3C[C@H]1CN(CCO)[C@H]2[C@@H]3Cc1ccccc1` [IB-714], less than 5 µM.
Take `CC(C)C[C@@H]1[C@H]2CN[C@@]3(C(=O)NCCc4ccccc4)[C@@H](C2)CN(Cc2ccc(F)cc2)[C@@H]13` [IB-725]: the IC50 is less than 5 µM.
To `CC(C)CCNC(=O)[C@]12NC[C@H]3C[C@H]1CN(CCO)[C@H]2[C@@H]3Cc1cccc2ccccc12` [IB-727] belongs less than 5 µM; to `NC(=O)CCNC(=O)[C@]12NC[C@H]3C[C@H]1CN(Cc1ccccc1)[C@H]2[C@@H]3Cc1ccccc1` [IB-734], 10 to 30 µM; to `CC(C)CN1C[C@@H]2C[C@@H]3CN[C@]2(C(=O)NCCC(N)=O)[C@@H]1[C@@H]3Cc1cccc2ccccc12` [IB-737], 10 to 30 µM.
For `CC(C)CCNC(=O)[C@]12NC[C@H]3C[C@H]1CN(Cc1ccc(O)cc1)[C@H]2[C@@H]3CC(C)C` [IB-739] the value was 10 to 30 µM; for `NC(=O)CCNC(=O)[C@]12NC[C@H]3C[C@H]1CN(Cc1ccc(O)cc1)[C@H]2[C@@H]3Cc1cccc2ccccc12` [IB-743], less than 5 µM.
For the compound `CC(C)CCN1C[C@@H]2C[C@@H]3CN[C@]2(C(=O)NCc2ccccc2)[C@@H]1[C@@H]3Cc1ccc(O)cc1` [IB-749], the IC50 was 10 to 30 µM.
Take `CC(C)CCN1C[C@@H]2C[C@@H]3CN[C@]2(C(=O)NCC(C)C)[C@@H]1[C@@H]3CC(C)C` [IB-753]: the IC50 was less than 5 µM.
Take `CC(C)C[C@@H]1[C@H]2CN[C@@]3(C(=O)NCc4ccccc4)[C@@H](C2)CN(CCc2ccccc2)[C@@H]13` [IB-757]: the IC50 is less than 5 µM.
To `CC(C)CNC(=O)[C@]12NC[C@H]3C[C@H]1CN(CCc1ccccc1)[C@H]2[C@@H]3Cc1ccccc1` [IB-759] belongs less than 5 µM; to `CC(C)CNC(=O)[C@]12NC[C@H]3C[C@H]1CN(CCc1ccccc1)[C@H]2[C@@H]3CC(C)C` [IB-760], less than 5 µM.
As to `CC(C)CNC(=O)[C@]12NC[C@H]3C[C@H]1CN(Cc1cccc4ccccc14)[C@H]2[C@@H]3CC(C)C` [IB-762], the IC50 was less than 5 µM.
`CC(C)CNC(=O)[C@]12NC[C@H]3C[C@H]1CN(Cc1cccc4ccccc14)[C@H]2[C@@H]3Cc1ccc(O)cc1` [IB-763]: the IC50 lay within 10 to 30 µM.
For `CC(C)CNC(=O)[C@]12NC[C@H]3C[C@H]1CN(CC1CCCCC1)[C@H]2[C@@H]3Cc1ccc(O)cc1` [IB-770] the value was 10 to 30 µM.
To `O=C(NCc1ccccc1)[C@]12NC[C@H]3C[C@H]1CN(Cc1ccc(F)cc1)[C@H]2[C@@H]3Cc1ccccc1` [IB-772] belongs less than 5 µM; to `CC(C)C[C@@H]1[C@H]2CN[C@@]3(C(=O)NCc4ccccc4)[C@@H](C2)CN(Cc2ccc(F)cc2)[C@@H]13` [IB-773], less than 5 µM.
`CC(C)CNC(=O)[C@]12NC[C@H]3C[C@H]1CN(Cc1ccc(F)cc1)[C@H]2[C@@H]3CCc1ccccc1` [IB-774]: the IC50 was less than 5 µM.
For `O=C(NCc1ccccc1)[C@]12NC[C@H]3C[C@H]1CN(Cc1ccccc1)[C@H]2[C@@H]3Cc1cccc2ccccc12` [IB-777] the value was less than 5 µM; for `CC(C)CCNC(=O)[C@]12NC[C@H]3C[C@H]1CN(CC(C)C)[C@H]2[C@@H]3Cc1ccccc1` [IB-780], less than 5 µM; for `CC(C)CN1C[C@@H]2C[C@@H]3CN[C@]2(C(=O)NCc2ccccc2)[C@@H]1[C@@H]3Cc1ccc(O)cc1` [IB-783], 10 to 30 µM.
On to `CC(C)CC[C@@H]1[C@H]2CN[C@@]3(C(=O)NCc4ccccc4)[C@@H](C2)CN(Cc2ccc(O)cc2)[C@@H]13` [IB-786], for which the IC50 lay in the range of 10 to 30 µM.
For `CC(C)C[C@@H]1[C@H]2CN[C@@]3(C(=O)NCc4ccccc4)[C@@H](C2)CN(Cc2ccc(O)cc2)[C@@H]13` [IB-787] the value was 10 to 30 µM; for `O=C(NCc1cccc2ccccc12)[C@]12NC[C@H]3C[C@H]1CN(Cc1cccc4ccccc14)[C@H]2[C@@H]3CCc1ccccc1` [IB-804], less than 5 µM.
For `NC(=O)CCNC(=O)[C@]12NC[C@H]3C[C@H]1CN(Cc1ccccc1)[C@H]2[C@@H]3Cc1cccc2ccccc12` [IB-813] the value was less than 5 µM.
For `O=C(NCc1ccc(F)cc1)[C@]12NC[C@H]3C[C@H]1CN(CCO)[C@H]2[C@@H]3Cc1cccc2ccccc12` [IB-831] the value was less than 5 µM; for `CC(C)C[C@@H]1[C@H]2CN[C@@]3(C(=O)NCc4ccccc4)[C@@H](C2)CN(Cc2ccc(Cl)cc2)[C@@H]13` [IB-864], 5 to 10 µM.
In the case of `CC(C)C[C@@H]1[C@H]2CN[C@@]3(C(=O)NCc4ccccc4)[C@@H](C2)CN(Cc2cccc(Cl)c2)[C@@H]13` [IB-865], the IC50 lay within 5 to 10 µM.
To `COc1ccc(CN2C[C@@H]3C[C@@H]4CN[C@]3(C(=O)NCc3ccccc3)[C@@H]2[C@@H]4CC(C)C)cc1` [IB-866] belongs 5 to 10 µM; to `Cc1ccc(CN2C[C@@H]3C[C@@H]4CN[C@]3(C(=O)NCc3ccccc3)[C@@H]2[C@@H]4CC(C)C)cc1` [IB-867], 5 to 10 µM; to `CC(C)C[C@@H]1[C@H]2CN[C@@]3(C(=O)NCc4ccc(Cl)cc4)[C@@H](C2)CN(CC(C)C)[C@@H]13` [IB-871], 10 to 30 µM.
For `CC(C)C[C@@H]1[C@H]2CN[C@@]3(C(=O)NCc4ccccc4)[C@@H](C2)CN(Cc2ccc(N(C)C)cc2)[C@@H]13` [IB-873] the value was 5 to 10 µM; for `CC(C)C[C@@H]1[C@H]2CN[C@@]3(C(=O)NCc4ccccc4)[C@@H](C2)CN(Cc2ccc(C(C)(C)C)cc2)[C@@H]13` [IB-874], 5 to 10 µM; for `CC(C)CC[C@@H]1[C@H]2CN[C@@]3(C(=O)NCc4ccccc4)[C@@H](C2)CN(CC(C)C)[C@@H]13` [IB-875], 10 to 30 µM.
For `CC(C)CCN1C[C@@H]2C[C@@H]3CN[C@]2(C(=O)NCc2ccccc2)[C@@H]1[C@@H]3CC(C)C` [IB-876] the value was 10 to 30 µM.
Consider `CCOc1ccc(CN2C[C@@H]3C[C@@H]4CN[C@]3(C(=O)NCc3ccccc3)[C@@H]2[C@@H]4CC(C)C)cc1` [IB-878], for which the IC50 lay within 10 to 30 µM.
On to `CC(C)C[C@@H]1[C@H]2CN[C@@]3(C(=O)NCc4ccc5ccccc5c4)[C@@H](C2)CN(Cc2ccccc2)[C@@H]13` [IB-879], for which the IC50 is less than 5 µM.
For `NC(=O)CN1C[C@H]2C[C@]3(C(=O)NCc4ccc(F)cc4)NC[C@H]2[C@H]1[C@H]3Cc1cccc2ccccc12` [IF-97] the value was 10 to 30 µM.
